Laboratory results: US8404644B2, “Agents with angiogenic and wound healing activity” (Meat & Livestock Australia Limited, priority 2007, dated 2013)

Assays:
[1] = tested on: rat aortic ring; assay: Rat aortic ring angiogenesis assay (Examples 1 and 2); type: cell-based
Experimental: Rat aorta were removed and cleaned of adhering fatty and connective tissues before being cut into rings of approximately 3 mm width. Fibrinogen was applied to the bottoms of wells of multi-well culture plates and allowed to gel by thrombin action. An aortic ring was then layered on the top of each gel and a further layer of fibrin placed on this. The fibrinogen was prepared in MCDB131 medium (Sigma, United States) supplemented with antibiotics. The double layer of fibrin was then overlaid with MCDB131 medium containing the test extracts. Control wells contained HBSS. Fumagillin (20 μg/mL) was assayed in triplicate as a negative control.
The gels were incubated at 37° C. in an atmosphere of 3% CO2/97% air. The rings were examined using an inverted microscope and the growth of microvessels from their perimeters is observed. Digital pictures were taken of these every 2 days and the extent of microvessel growth relative to the size of the ring was determined using National Institute of Health (NIH) Image software (National Institutes of Health (NIH), Rockville Pike, Bethesda, Md., United States, and the rate of growth of microvessels was then determined for each well. Each test extract was assayed in triplicate and the mean growth rate was calculated.
Additional analysis of several of the MLA008E2 fractions was performed using the rat aortic ring assay (in vitro angiogenesis) as described in Example 1.8 and a rat dorsal flap assay (wound healing assay).

[2] = tested on: bovine aorta endothelial cells; assay: Endothelial cell migration assay; type: cell-based; conditions: compared to the background level of migration (cells and media); 22±1 hour
Experimental: Bovine aorta where obtained from a local abattoir and clamped at either end. Arterioles were tied off with string. The aorta was washed free of contaminating blood with 2% sucrose solution under sterile conditions. Trypsin was added in PBS buffer and incubated for 30 minutes. The endothelial cell suspension was mixed 1:1 with cell culture media (DMEM containing 20% foetal bovine serum, 2% glutamine and antibiotics). The cells were collected by centrifugation at 960×g for 10 minutes then suspended in media prior to culturing stock cell ampoules. After five cell passages the cells were frozen in 10% DMSO and stored in liquid nitrogen. […] The cells were then harvested for use.
BD Bioscience angiogenesis cell migration assay 24 well plates (BD Bioscience, Franklin Lakes, N.J., United States) were used as per the manufacturers instructions. The migration plate was kept at −18° C. until required. Briefly, bovine aorta endothelial cells were prepared in DMEM and HEPES pH 7.2 at 2×10^5 cells/mL. A 250 μL volume of the cell suspension (5×10^4 cells) were added to the top chamber. Immediately, 750 μL was added to each of the bottom wells using the sample port to the bottom wells. Samples were prepared by adding the glycoprotein extract to 1 mL of DMEM containing HEPES. The plate was incubated for 22±1 hour at 37° C., 5% CO2 atmosphere. […]

[3] = target: T1, elastase I (Sus scrofa, UniProt P00772); assay: Chaperone activity: protection of elastase I from heat denaturation; type: biochemical; conditions: boiling water bath for 30 seconds
T1 construct: purchased Worthington Biochemical Corporation 2280
T1 sequence (P00772 27-266): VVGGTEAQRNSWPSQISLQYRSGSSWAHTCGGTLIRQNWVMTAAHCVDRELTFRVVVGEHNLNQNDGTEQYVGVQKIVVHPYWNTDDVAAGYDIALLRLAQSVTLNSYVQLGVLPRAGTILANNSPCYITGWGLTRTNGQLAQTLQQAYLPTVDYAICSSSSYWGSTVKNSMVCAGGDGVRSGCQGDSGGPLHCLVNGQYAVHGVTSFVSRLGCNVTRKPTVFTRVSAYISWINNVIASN
Experimental: Bovine crystallin fractions were tested for ability to protect the proteases elastase I, trypsin and chymotrypsin from heat denaturation. Briefly, the proteases were heated in a boiling water bath for 30 seconds in the presence or absence of the crystallin fractions.

[4] = tested on: rat aortic ring; assay: Rat aortic ring angiogenesis assay (Example 4.3); type: cell-based, Lewis rat; conditions: for % of Control: microvessel growth; for activity in promoting angiogenesis: summary of second study
Experimental: Four separate studies were carried out to determine the angiogenic effect of crystallin preparations. Each sample was assayed in triplicate. A positive control (VEGF) and a vehicle control containing PBS was also run in triplicate. […] Preliminary statistical significance was assessed with an independent Student t-test at α<0.05. Graphical representation of averages +/− standard errors were determined.
The first study investigated the angiogenic potential of bovine fractions prepared by gel filtration analysis as described in Example 3.2. As described in that Example, the alpha fraction contained αA and αB crystallin, the β H fraction contained all β crystallins, the β L1 fractions contained a sub-fraction of beta crystallins and a high content of βB2 crystallin and beta B3 crystallin and the beta L2 fraction contained only βB2 crystallin and βA3 crystallin.
The second study investigated the angiogenic potential of purified crystallin proteins. Briefly, βB3 crystallin was prepared by heating (97-99° C. for 3 minutes, supernatant collected by centrifugation) and was essentially homogenous. Alpha A crystallin and αB crystallin samples were prepared by ion exchange chromatography as described above and were also essentially homogenous. The Wound Heal 1-3 preparations were also tested in this study.
The third study investigated the angiogenic potential of ovine crystallin proteins compared to their bovine equivalents. Both bovine and ovine crystallin proteins were purified essentially to homogeneity by RP. HPLC using a C4 column, as described below in Example 5. Homogeneity was confirmed by SDS-PAGE. The effect of elastase I treatment of βB2 crystallin was also investigated by comparing the angiogenic potential of intact βB2 crystallin (i.e. undigested) with elastase I digested βB2 crystallin. Elastase I treatment releases the N-terminal and C-terminal extensions of the crystallin protein leaving a globular protein that is monomeric.
In the final study, ovine βB2 crystallin was tested alone or in combination with indoleamine 2,3-dioxygenase (IDO) and ovine alpha B crystallin was tested alone or in combination with tryptophan dioxygenase (TDO)
Briefly, in each study, a single Lewis rat was euthanised and its aorta transferred to a 15 mL Falcon tube containing 10 mL of MCBD-131 medium and stored on ice. After transferring the aorta to a 92×17 mm petri dish containing 10 mL of ice cold MCDB-131, the outer fatty tissue was removed under an Olympus SZ-60 Dissecting microscope. This was undertaken with fibre optic lamp illumination. The aorta was then cut into sequential rings approximately 2 mm in size. Connective tissue was removed with micro scissors and forceps from the outside of the individual rings. Clean rings were stored in a separate petri dish in sterile MCDB-131 medium. Rings were pre-incubated overnight at 37° C. in an atmosphere of 97% air/3% CO2.
To prepare gel sandwiches, 75 mg of fibrinogen was added to 25 mL MCDB-131 medium and shaken gently on a rocker roller for 5 minutes. 3 ml of MCDB-131/fibrinogen solution was added to a 15 mL Falcon tube, followed by 10 μL of thrombin and quickly mixed. A 0.4 mL volume of this fibrinogen-thrombin solution was added to each well on a 24 well plate, 6 wells at a time. Aortic rings were then placed on the setting gel, pushed gently into the gel and left for 45 minutes. These steps were then repeated so each ring was covered with 0.4 mL of gel. Gels were left to set at room temperature. […] The plate was then placed in incubator (37° C., 97% air/3% CO2).
Culture plate were examined daily for signs of infection (fungal growth or yellowing of media) in the wells using an inverted microscope. The growth of microvessels from their perimeters was also observed. Digital photographs of each well were taken seven days after plating using a Pixera PVC-100C digital camera mounted on an OLYMPUS CK-12 microscope and stored on a Macintosh Computer. […]

## CO[C@@H]1[C@H](OC(=O)/C=C/C=C/C=C/C=C/C(=O)O)CC[C@]2(CO2)[C@H]1[C@@]1(C)O[C@@H]1CC=C(C)C [Fumagillin]
[1]; 20 μg/ml
  Rate of microvessel growth: 9.462 ± 1.67
[1]; batch 1, 20 μg/ml
  Mean growth rate: 9.5 ± 1.7
[1]; batch 2, 40 μg/ml
  Mean growth rate: 5.4 ± 1.6
[1]; inhibition vs Control (HBSS), 20 μg/ml
  Stimulation/inhibition: 24.07% inhibition
[1]; inhibition, batch 1, 20 μg/ml
  Percentage stimulation or inhibition: 24.1% inhibition
[1]; inhibition, batch 2, 40 μg/ml
  Percentage stimulation or inhibition: 57.7% inhibition

## N[C@@H](Cc1c[nH]c2ccccc12)C(=O)O [Tryptophan, tryptophan]
[2]
  endothelial cell migration (in words): able to promote migration of the cells

## Bovine αA crystallin: bovine alpha A crystallin prepared by ion exchange chromatography, essentially homogenous
[3]
  chaperone activity: protection of elastase I from heat denaturation (in words): able to protect elastase I from heat inactivation
[4]; second study, 200 μg/mL
  increase in microvessel growth (stimulatory): 8.26%
  % of Control: 108.26%
[4]; summary of second and third study
  angiogenic activity (in words): angiogenic
[4]
  activity in promoting angiogenesis: 108%

## Indoleamine 2,3-dioxygenase IDO: tryptophan hydrolyzing enzyme
[4]; forth study, 100 μg/mL
  angiogenic activity (in words): stimulatory
  % of Control: 116.4%

## VEGF [reference compound]
[1]; batch 2, 40 μg/ml
  Mean growth rate: 13.9 ± 0.2
[1]; stimulation, batch 2, 40 μg/ml
  Percentage stimulation or inhibition: 11.1% stimulation
[4]; first study, 30 μg/ml, not statistically significant
  inhibition of microvessel growth: 15.08%
[4]; forth study, 50 μg/mL
  % of Control: 113.7%
[4]; second study, VEGF 50 μg/mL, test samples 200 μg/mL
  angiogenic effect on microvessel growth (in words): slight stimulation
[4]; second study, 50 μg/mL
  % of Control: 107.08%
[4]; 50 ng/mL
  activity in promoting angiogenesis: 107%
[4]; third study, 50 μg/mL
  % of Control: 113.7%
